What was measured:
Format in all cases: cell-based
[1] = system: MLE-12 cells; test: Inhibitory effect on intracellular accumulation of ferrous ions (FerroOrange) under RSL3; conditions: 1 μM RSL3, 8 hours, FIG. 5
Protocol: To confirm the inhibitory effect on intracellular accumulation of ferrous ions in lung epithelial cells, MILE-12 cells were seeded at 2×10^5 cells/well in a 12-well plate and cultured for 18 to 24 hours. Example Compound 29 and Fer-1 were diluted to have the final concentration of 0.01, 0.1, 1, and 10 μM and added to each well, and the cells were cultured for 10 minutes. Afterward, RSL3 was treated to have the final concentration of 1 M, and the cells were cultured for 8 hours. To confirm the inhibitory effect on intracellular accumulation of ferrous ions, FerroOrange (DOJINDO; F374) was used. According to the manufacturer's protocol, FerroOrange was diluted in the culture broth to have the final concentration of 1 M and added, and fluorescence staining was performed after a 30-minute reaction. The MLE-12 cells that were fluorescence-stained with FerroOrange were detached from the 12-well plate using 0.25% trypsin-EDTA and transferred to a microtube. Fluorescence (Ex/Em=580 nm/[…]) was measured using BD FACSLyric™, and the relative change compared to the control (RSL3-untreated group) was calculated.

[2] = system: fibroblasts (NIH/3T3); test: Protective effect against cell death due to RSL3 (LDH release), NIH/3T3; conditions: 24 hours
Protocol: (§1) To confirm cell death protection effects on cardiac cells, adrenal medullary cells, renal fibroblasts, retinal epithelial cells, lung epithelial cells, renal proximal tubular epithelial cells, hippocampal neurons and fibroblasts, each type of cells were seeded at 4×10^3 to 1.2×10^4 cells/well in a 96-well plate and cultured for 18 to 24 hours. The example compounds were diluted to have the final concentration of 0.001, 0.003, 0.01, 0.3, 1, 3, and 10 μM, respectively, and then added to different wells and cultured for 15 to 20 minutes. […] To confirm the cell death protection effect of the example compounds, the degree of extracellular secretion of lactate dehydrogenase (LDH) was measured using a cytotoxicity LDH assay kit [Dojindo; CK12]. Briefly, at the end of 24-hour treatment of each type of cells with RSL3, 70 μL of the supernatant was taken from the 96-well plate where the cells were cultured and transferred to a new 96-well plate. The assay buffer included in the kit was added at 70 μL/well (equal to that of the sample) and the plate was covered with foil to block light and allowed to react for 15 to 20 minutes at room temperature. While observing a color change of the sample, 35 µL/well of a stop solution was added, an absorbance at 490 nm was measured using an iD3 spectrophotometer, and an EC50 value was calculated.

[3] = system: renal proximal tubular epithelial cells (HK2); test: Protective effect against cell death due to RSL3 (LDH release), HK2; conditions: RSL3 0.3 μM, 24 hours
Protocol: as §1

[4] = system: renal fibroblasts (NRK-49F); test: Protective effect against cell death due to RSL3 (LDH release), NRK-49F; conditions: RSL3 3 μM, 24 hours
Protocol: as §1

[5] = system: MLE-12 cells; test: Inhibitory effect on intracellular lipid ROS (BODIPY 581/591 C11) under RSL3; conditions: 1 μM RSL3, 2 hours, compound 0.01, 0.1, 1 μM, FIG. 1
Protocol: To confirm the protective effect against intracellular lipid ROS in lung epithelial cells, MLE-12 cells were seeded at 2×10^5 cells/well in a 12-well plate and cultured for 18 to 24 hours. Example Compound 29 and Fer-1 were diluted to have the final concentration of 0.01, 0.1, and 1 μM and added to each well, and the cells were cultured for 10 minutes. Afterward, RSL3 was treated to have the final concentration of 1 μM, and the cells were cultured for 2 hours. To confirm the intracellular inhibitory effect on lipid ROS, the lipid peroxidation sensor BODIPY™ 581/591 C11 (Invitrogen™; D3861) was used. According to the manufacturer's protocol, the BODIPY™ 581/591 C11 was diluted in the culture broth to have the final concentration of […] and treated, and fluorescence staining was performed after a 30-minute reaction. The MILE-12 cells that were fluorescence-stained with BODIPY™ 581/591 C11 were detached from the 12-well plate using 0.25% trypsin-EDTA and transferred to a microtube. Fluorescence (Ex/Em=500-650 nm/510-665 nm) was measured using BD FACSLyric™, and the relative change compared to the control was calculated.

[6] = system: adrenal medullary cells (PC-12); test: Protective effect against cell death due to RSL3 (LDH release), PC-12; conditions: RSL3 0.3 μM, 24 hours
Protocol: as §1

[7] = system: MLE-12 cells; test: Inhibitory effect on cytosolic ROS (CM-H2DCFDA) under RSL3; conditions: 1 μM RSL3, 2 hours, compound 0.01, 0.1, 1 μM, FIG. 3
Protocol: To confirm the protective effect against cyto-ROS in lung epithelial cells, MLE-12 cells were seeded at 2×10^5 cells/well in a 12-well plate, and cultured for 18 to 24 hours. Example Compound 29 and Fer-1 were diluted to have the final concentration of 0.01, 0.1, and 1 μM and added to each well, and the cells were cultured for 10 minutes. Afterward, RSL3 was treated to have the final concentration of 1 M, and the cells were cultured for 2 hours. To confirm the inhibitory effect on cyto-ROS, the general oxidative stress indicator CM-H2DCFDA (Invitrogen™; C6827) was used. According to the manufacturer's protocol, CM-H2DCFDA was diluted in the culture broth to have the final concentration of 5 μM, and fluorescence staining was performed after a 30-minute reaction. The MLE-12 cells that were fluorescence-stained with CM-H2DCFDA were detached from the 12-well plate using 0.25% trypsin-EDTA and transferred to a microtube. Fluorescence (Ex/Em=492˜495 nm/517-527 nm) was measured using BD FACSLyric™, and the relative change compared to the control (RSL3-untreated group) was calculated.

[8] = system: lung epithelial cells (MLE-12); test: Protective effect against cell death due to RSL3 (LDH release), MLE-12; conditions: 24 hours
Protocol: as §1

[9] = system: MLE-12 cells; test: Inhibitory effect on mitochondrial accumulation of ferrous ions (Mito-FerroGreen) under RSL3; conditions: 1 μM RSL3, 8 hours, compound 0.01, 0.1, 1 μM, FIG. 6
Protocol: To confirm the inhibitory effect on the mitochondrial accumulation of ferrous ions in lung epithelial cells, MILE-12 cells were seeded at 2×10^5 cells/well in a 12-well plate and cultured for 18 to 24 hours. Example Compound 29 and Fer-1 were diluted to have the final concentration of 0.01, 0.1, and 1 μM and added to each well, and the cells were cultured for 10 minutes. Afterward, RSL3 was treated to have the final concentration of 1 μM, and the cells were cultured for 8 hours. To confirm the inhibitory effect on the mitochondrial accumulation of ferrous ions, Mito-FerroGreen (DOJINDO; M489) was used. According to the manufacturer's protocol, the Mito-FerroGreen was diluted in the culture broth to have the final concentration of 1 μM, and fluorescence staining was performed after a 30-minute reaction. The MLE-12 cells that were fluorescence-stained with Mito-FerroGreen were detached from the 12-well plate using 0.25% trypsin-EDTA and transferred to a microtube. Fluorescence (Ex/Em=505 nm/535 nm) was measured using, BD FACSLyric™, and the relative change compared to the control was calculated.

**Q.** Which results are given for `OCCOCCOCc1cc(NC2CCOCC2)c2[nH]c(-c3ccccc3)cc2c1` [Example 29, 2-(2-((2-phenyl-7-((tetrahydro-2H-pyran-4-yl)amino)-1H-indol-5-yl)methoxy)ethoxy)ethan-1-ol]?
**A.** intracellular ferrous ions increased by RSL3 treatment [1]: significantly decreased at 0.1 and 1 μM; EC50 ([2]; Mus musculus, NIH3T3, RSL3 3 μM): 100 to 1000 nM; EC50 ([3]; Epithelial cell): ≤ 100 nM; EC50 ([4]; Rattus norvegicus): ≤ 100 nM; intracellular lipid ROS increased by RSL3 treatment [5]: significantly decreased at 0.01, 0.1, and 1 μM; EC50 ([6]; Rattus norvegicus): 100 to 1000 nM; cyto-ROS increased by RSL3 treatment [7]: significantly reduced lipid ROS levels at 0.1 and 1 μM; EC50 ([8]; MLE12, RSL3 1 μM): ≤ 100 nM; mitochondrial ferrous ions increased by RSL3 treatment [9]: significantly reduced mitochondrial ferrous ion levels at 0.01, 0.1, and 1 M

**Q.** How did the “intracellular ferrous ions increased by RSL3 treatment” value [1] turn out when `CCOC(=O)c1ccc(NC2CCCCC2)c(N)c1` [Fer-1, ferrostatin-1, reference compound] was run?
**A.** significantly decreased at 0.1 and 1 μM

**Q.** And the EC50 ([2]; RSL3 3 μM)?
**A.** 100 to 1000 nM

**Q.** What about the EC50 [3] of the same compound?
**A.** ≤ 100 nM

**Q.** What about the EC50 [4] of the same compound?
**A.** ≤ 100 nM

**Q.** And the “intracellular lipid ROS increased by RSL3 treatment” value [5]?
**A.** significantly decreased at 0.01, 0.1, and 1 μM

**Q.** And the EC50 [6]?
**A.** ≤ 100 nM

**Q.** And the “cyto-ROS increased by RSL3 treatment” value [7]?
**A.** significantly reduced lipid ROS levels at 0.01, 0.1 and 1 μM

**Q.** What about the EC50 ([8]; RSL3 1 μM) of the same compound?
**A.** 100 to 1000 nM

**Q.** What about the “mitochondrial ferrous ions increased by RSL3 treatment” value [9] of the same compound?
**A.** significantly reduced mitochondrial ferrous ion levels at 0.1 and 1 μM

From patent US20260159481A1, “INDOLE DERIVATIVE WITH SUBSTITUENT AND PHARMACEUTICAL USE” (MITOIMMUNE THERAPEUTICS INC., priority 2023, published 2026)
